# Columns and labels:
# [1] = system: LPS-induced pulmonary neutrophilia; test: LPS induced pulmonary neutrophilia in rats, intratracheally administered PDE4 inhibitors; type: in vivo; conditions: rat, intratracheal (i.t.) 2 hours prior to LPS challenge, wet suspension in saline/tween; for inhibition of the neutrophilia: dose not stated
# Source text: This assay is an animal model of inflammation in the lung—specifically neutrophilia induced by lipopolysaccharide (LPS)— and allows the study of putative inhibition of such neutrophilia (anti-inflammatory effect) by intratracheally (i.t.) administered PDE4 inhibitors. The PDE4 inhibitors are preferably in dry powder or wet suspension form. I.t. administration is one model of inhaled administration, allowing topical delivery to the lung.
# Animals: Male CD (Sprague Dawley Derived) rats supplied by Charles River, Raleigh, N.C., USA or Charles River, United Kingdom are housed in groups of 5 rats per cage, acclimatized after delivery for at least 5 days with bedding/nesting material regularly changed, fed on SDS diet R1 pelleted food given ad lib, and supplied with daily-changed pasteurized animal grade drinking water.
# Device for wet suspension administration: This is similar to the above but a blunt dosing needle, whose forward end is slightly angled to the needle axis, is used, with a flexible plastic portex canula inserted into the needle.
# Wet suspensions of the drug (aqueous) can be prepared by adding the required volume of vehicle to the drug; the vehicle used can for example be saline alone or a mixture of saline/tween (e.g. 0.2% tween 80). The wet suspension is usually sonicated for ca. 10 minutes prior to use.
# Preparation, and dosing with PDE 4 inhibitor: Rats are anaesthetized by placing the animals in a sealed Perspex chamber and exposing them to a gaseous mixture of isoflurane (4.5%), nitrous oxide (3 litres.minute^−1) and oxygen (1 litre.minute^−1). Once anaesthetized, the animals are placed onto a stainless steel i.t. dosing support table. They are positioned on their back at approximately a 35° angle. A light is angled against the outside of the throat to highlight the trachea. […]
# Neutrophil cell counts: The Bronchoalveolar lavage (BAL) samples are centrifuged at ca. 1300 rpm for ca. 7 minutes. […] The total cells are also counted from the resuspension. From these two counts, the total numbers of neutrophils in the BAL are determined. […]
# [2] = system: TNF-α production in human PBMC (peripheral blood mononuclear cells); test: Inhibition of TNF-alpha production in human PBMC (IGEN technology); type: cell-based; conditions: inhibition of LPS-stimulated TNF-α production in human PBMC; measured and/or mean; read-out: PBMC pIC50 (IGEN assay) (converted)
# Protocol: Test compounds are prepared as a ca. 10 mM stock solution in DMSO and a dilution series prepared in DMSO with 8 successive 3fold dilutions, either directly from the 10 mM stock solution or from a more dilute solution in DMSO. The compound is added to assay plates using a Biomek Fx liquid handling robot.
# PBMC cells (peripheral blood mononuclear cells) are prepared from heparinised human blood from normal volunteers by centrifugation on histopaque at ca. 1000 g for ca. 30 minutes. The cells are collected from the interface, washed by centrifugation (ca. 1300 g, ca. 10 minutes) and resuspended in assay buffer (RPMI 1640 containing 10% foetal calf serum, 1% L-glutamine and 1% penicillin/streptomycin) at 1×10^6 cells/ml. Ca. 50 μl (ca. 50 ul) of cells are added to microtitre wells containing ca. 0.5 or ca. 1.0 μl (ul) of an appropriately diluted compound solution. Ca. […]
# The supernatant is removed and the concentrations of TNF-α are determined by electrochemiluminescence assay using the IGEN technology or by ELISA (see below).
# Ca. […] 50 μl (ul) of streptavidin/biotinylated anti-TNF-α antibody mix, ca. 25 μl ruthenium tagged anti-TNF-α monoclonal and ca. 100 μl PBS containing 0.1% bovine serum albumin are added to each well and the plates are sealed and shaken for ca. 2 hours before being read on an IGEN instrument.
SMILES,ED50 for inhibition of neutrophilia [1],IC50 [2] [nM],inhibition of the neutrophilia [1]
"CCc1nc2c(cnn2CC)c(NC2CCOCC2)c1CNC(=O)c1ccc(-c2ccc(C(=O)NCc3c(CC)nc4c(cnn4CC)c3NC3CCOCC3)cc2)cc1 [Example 23, N,N′-bis{[1,6-diethyl-4-(tetrahydro-2H-pyran-4-ylamino)-1H-pyrazolo[3,4-b]pyridin-5-yl]methyl}-4,4′-biphenyldicarboxamide]",about 50 micrograms/kg body weight,~0.0501,
"CCc1nc2c(cnn2CC)c(NC2CCOCC2)c1CNC(=O)c1ccc(C(=O)NCc2c(CC)nc3c(cnn3CC)c2NC2CCOCC2)o1 [Example 35, N,N′-bis{[1,6-diethyl-4-(tetrahydro-2H-pyran-4-ylamino)-1H-pyrazolo[3,4-b]pyridin-5-yl]methyl}-2,5furandicarboxamide]",,,about 43%
"CCn1ncc2c(NC3CCOCC3)c(CNC(=O)c3cccc(-c4cccc(C(=O)NCc5c(C)nc6c(cnn6CC)c5NC5CCOCC5)c4)c3)c(C)nc21 [Example 29, N,N′-bis{[1-ethyl-6-methyl-4-(tetrahydro-2H-pyran-4-ylamino)-1H-pyrazolo[3,4-b]pyridin-5-yl]methyl}-3,3′-biphenyldicarboxamide]",,,about 40%
